This passage reports Bmax results from patent publication EP2431387A1, “A raft deficient yeast expression system for the production of recombinant membrane proteins” (Centre National de la Recherche Scientifique (C.N.R.S), priority 2010, dated 2012).

SMILES strings stand for the structures. Read-outs that look alike come from different tables or passages of the source.

Test [1] addresses T1, DRD2 (Homo sapiens, UniProt P14416). As to the kind of experiment: Saturation radioligand binding assay on crude membranes of P. pastoris cells. The conditions noted are these: DRD2 expressed in membranes of erg6 cells.
Protocol: (§1) For saturation binding assays, increasing concentrations of radioactive ligands ranging from 1 to 30 nM were added to 10 µg of proteins diluted in binding buffer (30 mM HEPES, pH 7.7, 0.15 M NaCl and 0.1% BSA). […] Non-specific binding was determined by the addition of 10 µM « cold » ligands using spiperone, prazozine, yohimbine and melatonin for DRD2, ADRA1, ADR2B and MTR1A, respectively. After 1-h incubation at RT, the reaction was terminated by rapid filtration of the samples through GF/B filters presoaked in 1 % polyethylenimine. The filters were washed 3 times with ice-cold buffer (Tris-HCI 50 mM, pH 7.4), and the radioactivity was measured by liquid-scintillation counting. The equilibrium dissociation constant, KD and the maximal number of binding sites, Bmax for radioligands were determined. The data were expressed as the mean ± standard error (SE) for at least three independant experiments performed in triplicate. Data were fitted through non-linear regression analysis with the one-site saturation binding model using the Prism 4 program of GraphPad.
The target in test [2] is T1, DRD2. As to the kind of experiment: Saturation radioligand binding assay on CHAPS/CHS solubilized receptors. The settings on record: DRD2 solubilized (CHAPS/CHS) from membranes of erg6 cells.
Protocol: as §1
(§2) Saturation binding experiments were performed on CHAPS/CHS solubilized receptors the same way than described in Example 4 in order to test receptor activity and stability (FIG.5).
The target in test [3] is T2, ADRA1A (Homo sapiens, UniProt P35348). The conditions noted are these: ADRA1A solubilized (CHAPS/CHS) from membranes of erg6 cells.
T2 sequence (P35348 whole entry): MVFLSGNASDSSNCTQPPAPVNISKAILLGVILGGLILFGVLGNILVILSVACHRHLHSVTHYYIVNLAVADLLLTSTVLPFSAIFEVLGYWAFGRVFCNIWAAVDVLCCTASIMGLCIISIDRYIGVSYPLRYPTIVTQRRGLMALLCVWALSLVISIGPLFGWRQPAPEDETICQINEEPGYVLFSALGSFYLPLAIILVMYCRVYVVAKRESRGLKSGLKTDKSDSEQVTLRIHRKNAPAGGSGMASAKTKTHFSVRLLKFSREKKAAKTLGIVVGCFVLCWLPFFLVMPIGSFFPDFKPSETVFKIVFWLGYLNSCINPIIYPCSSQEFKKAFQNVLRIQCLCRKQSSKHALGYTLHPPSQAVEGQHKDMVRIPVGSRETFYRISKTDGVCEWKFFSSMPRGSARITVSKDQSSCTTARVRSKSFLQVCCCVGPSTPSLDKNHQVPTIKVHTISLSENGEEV
Protocol: as §1, §2
The target in test [4] is T2, ADRA1A.
Protocol: as §1
Test [5] addresses T3, MTR1A (Homo sapiens, UniProt P48039).
Protocol: as §1
Test [6] has as its target T3, MTR1A. The source holds these as a separate data set.
Protocol: as §1, §2

T3 sequence (P48039 whole entry): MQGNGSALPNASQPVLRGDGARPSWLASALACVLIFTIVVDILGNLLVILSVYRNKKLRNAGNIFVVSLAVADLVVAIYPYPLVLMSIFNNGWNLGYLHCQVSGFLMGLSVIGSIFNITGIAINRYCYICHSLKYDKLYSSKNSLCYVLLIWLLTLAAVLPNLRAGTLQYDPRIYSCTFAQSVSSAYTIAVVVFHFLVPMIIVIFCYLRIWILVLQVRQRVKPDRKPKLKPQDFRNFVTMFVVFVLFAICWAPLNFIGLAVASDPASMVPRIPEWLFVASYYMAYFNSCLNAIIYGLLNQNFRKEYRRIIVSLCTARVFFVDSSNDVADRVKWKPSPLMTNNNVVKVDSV
T1 sequence (P14416 whole entry): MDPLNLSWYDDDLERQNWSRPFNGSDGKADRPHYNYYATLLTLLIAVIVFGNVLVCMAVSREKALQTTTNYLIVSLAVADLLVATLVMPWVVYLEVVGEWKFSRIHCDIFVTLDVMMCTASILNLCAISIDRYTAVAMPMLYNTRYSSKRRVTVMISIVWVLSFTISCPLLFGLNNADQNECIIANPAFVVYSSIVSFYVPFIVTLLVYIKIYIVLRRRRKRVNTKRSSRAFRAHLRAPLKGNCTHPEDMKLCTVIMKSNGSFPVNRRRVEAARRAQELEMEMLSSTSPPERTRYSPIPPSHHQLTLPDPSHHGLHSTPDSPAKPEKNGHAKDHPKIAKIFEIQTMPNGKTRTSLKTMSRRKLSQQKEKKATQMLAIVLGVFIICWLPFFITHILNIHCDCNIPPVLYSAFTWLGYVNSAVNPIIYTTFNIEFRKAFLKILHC

Take `O=C(CCCN1CCC2(CC1)C(=O)NCN2c1ccccc1)c1ccc(F)cc1` [[3H]-Spiperone]: the values for the Bmax at DRD2 [1] and on DRD2 [2] were 62.20 ± 16.42 pmol/mg and 42.79 ± 4.71 pmol/mg, respectively.

On to `COc1cc2nc(N3CCN(C(=O)c4ccco4)CC3)nc(N)c2cc1OC` [[3H]-Prazozine], for which the Bmax on ADRA1A [3] is 11.34 ± 0.71 pmol/mg; at ADRA1A [4] (ADRA1A expressed in membranes of WT cells), 15.72 ± 2.09 pmol/mg; at ADRA1A [4] (ADRA1A expressed in membranes of erg6 cells) it was 35.74 ± 1.11 pmol/mg.

`COc1ccc2[nH]cc(CCNC(C)=O)c2c1` [[3H]-Melatonin]: the Bmax at MTR1A [5] (MTR1A expressed in membranes of WT cells) amounted to 4.86 ± 0.38 pmol/mg; on MTR1A [5] (MTR1A expressed in membranes of erg6 cells), 1.35 ± 0.30 pmol/mg; at MTR1A [6] (MTR1A solubilized (CHAPS/CHS) from membranes of WT cells), 2.91 ± 0.29 pmol/mg; at MTR1A [6] (MTR1A solubilized (CHAPS/CHS) from membranes of erg6 cells), 5.13 ± 0.32 pmol/mg.
